How the values were obtained:
Format in all cases: cell-based
[1] = system: Hep3B hepatocellular carcinoma cells; assay: 3H thymidine incorporation proliferation assay, Hep3B; conditions: Homo sapiens, 72 h
Protocol: (§1) The human tumor cell lines were obtained from the American Type Culture Collection (ATCC), P.O. Box 1549, Manassas, Va. 20108, USA, and cultured according to instructions from ATCC. Cells were seeded at 1.0×10^4 cells/well in 96-well plates. […] Plates were allowed to incubate for 72 h. The plates were pulsed with 1.0 μCi of ^3H-thymidine per well for the last 24 hours of the total incubation period, harvested, and read on a Top Count Scintillation Counter (Packard Instruments, Meriden, Conn.). The EC50 values—the ADC concentration at which cell proliferation was reduced by 50%—were determined using PRISM™ software, version 4.0 (GraphPad Software, La Jolla, Calif., USA).

[2] = system: HepG2 hepatocellular carcinoma cell line; assay: 3H thymidine incorporation proliferation assay, HepG2; conditions: Homo sapiens; HepG2, Table 1
Protocol: as §1
(§2) The EC50 so values, along with those against HepG2 and HuH7D12 hepatocellular carcinoma cell lines, are shown in Table 1, plus data for the drug alone (formula (II)). […] That is, release of the drug from the conjugate is efficient.

[3] = system: HuH7D12 hepatocellular carcinoma cell line; assay: 3H thymidine incorporation proliferation assay, HuH7D12; conditions: Homo sapiens, Huh-7D12; HuH7D12, Table 1
Protocol: as §1, §2

[4] = system: H446 small-cell lung cancer cells; assay: 3H thymidine incorporation proliferation assay, H446; conditions: Homo sapiens, NCI-H446, 72 h
Protocol: as §1

## CCCN(C(=O)[C@@H](NC(=O)[C@H]1CCCCN1C)[C@@H](C)CC)[C@H](C[C@@H](OC(C)=O)c1nc(C(=O)N[C@@H](Cc2ccc(N)cc2)C[C@H](C)C(=O)O)cs1)C(C)C [Unconjugated Drug (II)]
[1]
  EC50: 0.2 nM
[2]
  EC50: 0.3 nM
[3]
  EC50: 0.2 nM
[4]
  EC50: 0.2 nM

Source: patent US20170326249A1, “ANTIBODY-DRUG CONJUGATE OF AN ANTI-GLYPICAN-3 ANTIBODY AND A TUBULYSIN ANALOG, PREPARATION AND USES” (Bristol-Myers Squibb Company, priority 2016, published 2017)
